Measured values as given in PMC6268188, “Comparative Studies of the (Anti) Mutagenicity of Baccharis dracunculifolia and Artepillin C by the Bacterial Reverse Mutation Test” (Molecules, 2012).
“And” between values parts separate entries of the source, which are not always exact repeats. Identical values can stand only once. Like-named read-outs stand apart in the source and are kept apart here. Marks after values point to notes of the source that are not given here.

How the values were obtained:
S. typhimurium TA97a [1] = settings: positive control, 1.25 μg/ plate, TA 97, + S9
S. typhimurium TA100 [2] = settings: positive control, 1.25 μg/ plate, TA 100, + S9
S. typhimurium TA97a [3] = settings: mutagen alone (Ctrol +), 1.25 μg/ plate, TA 97a, + S9; listed as AA
S. typhimurium TA98 = settings: positive control, 1.25 μg/ plate, TA 98, + S9
S. typhimurium TA100 [4] = test system: S. typhimurium TA100

Compound | Number of revertants (M ± SD)/ plate (S. typhimurium TA97a [1]) | Number of revertants (M ± SD)/ plate (S. typhimurium TA100 [2]) | Number of revertants (M ± SD)/ plate (S. typhimurium TA97a [3]) | Number of revertants (M ± SD)/ plate (S. typhimurium TA98) | Number of revertants (M ± SD)/ plate (S. typhimurium TA100 [4])
Nc1ccc2cc3ccccc3cc2c1 [2-anthramine, 2-aminoanthracene, reference compound] | 1789 ± 89 ^e revertants/plate and 1861 ± 23 ^e revertants/plate | 1456 ± 78 ^e revertants/plate and 1072 ± 25^ e revertants/plate | 2312 ± 81 revertants/plate and 1861 ± 23 revertants/plate | 1567 ± 115 ^e revertants/plate and 1498 ± 33^ e revertants/plate | 
aflatoxin B1 [AFB1, reference compound] |  |  |  |  | 2171 ± 33 revertants/plate and 2200 ± 140 revertants/plate
